Literature values, collected in patent US9376416B2, “Composition containing scirpusin B, and process for producing composition containing scirpusin B” (MORINAGA & CO., LTD., priority 2010, dated 2016).

Assays:
[1] = test system: HIV; settings: reported in Non-Patent Citation 1
[2] = reported in Non-Patent Citation 2
[3] = test system: α-amylase; settings: reported in Non-Patent Citation 3 (mouse α-amylase)
[4] = molecular target: xanthine oxidase (Homo sapiens, UniProt P47989); settings: reported in Non-Patent Citation 4
xanthine oxidase, sequence (P47989 whole entry, species assumed): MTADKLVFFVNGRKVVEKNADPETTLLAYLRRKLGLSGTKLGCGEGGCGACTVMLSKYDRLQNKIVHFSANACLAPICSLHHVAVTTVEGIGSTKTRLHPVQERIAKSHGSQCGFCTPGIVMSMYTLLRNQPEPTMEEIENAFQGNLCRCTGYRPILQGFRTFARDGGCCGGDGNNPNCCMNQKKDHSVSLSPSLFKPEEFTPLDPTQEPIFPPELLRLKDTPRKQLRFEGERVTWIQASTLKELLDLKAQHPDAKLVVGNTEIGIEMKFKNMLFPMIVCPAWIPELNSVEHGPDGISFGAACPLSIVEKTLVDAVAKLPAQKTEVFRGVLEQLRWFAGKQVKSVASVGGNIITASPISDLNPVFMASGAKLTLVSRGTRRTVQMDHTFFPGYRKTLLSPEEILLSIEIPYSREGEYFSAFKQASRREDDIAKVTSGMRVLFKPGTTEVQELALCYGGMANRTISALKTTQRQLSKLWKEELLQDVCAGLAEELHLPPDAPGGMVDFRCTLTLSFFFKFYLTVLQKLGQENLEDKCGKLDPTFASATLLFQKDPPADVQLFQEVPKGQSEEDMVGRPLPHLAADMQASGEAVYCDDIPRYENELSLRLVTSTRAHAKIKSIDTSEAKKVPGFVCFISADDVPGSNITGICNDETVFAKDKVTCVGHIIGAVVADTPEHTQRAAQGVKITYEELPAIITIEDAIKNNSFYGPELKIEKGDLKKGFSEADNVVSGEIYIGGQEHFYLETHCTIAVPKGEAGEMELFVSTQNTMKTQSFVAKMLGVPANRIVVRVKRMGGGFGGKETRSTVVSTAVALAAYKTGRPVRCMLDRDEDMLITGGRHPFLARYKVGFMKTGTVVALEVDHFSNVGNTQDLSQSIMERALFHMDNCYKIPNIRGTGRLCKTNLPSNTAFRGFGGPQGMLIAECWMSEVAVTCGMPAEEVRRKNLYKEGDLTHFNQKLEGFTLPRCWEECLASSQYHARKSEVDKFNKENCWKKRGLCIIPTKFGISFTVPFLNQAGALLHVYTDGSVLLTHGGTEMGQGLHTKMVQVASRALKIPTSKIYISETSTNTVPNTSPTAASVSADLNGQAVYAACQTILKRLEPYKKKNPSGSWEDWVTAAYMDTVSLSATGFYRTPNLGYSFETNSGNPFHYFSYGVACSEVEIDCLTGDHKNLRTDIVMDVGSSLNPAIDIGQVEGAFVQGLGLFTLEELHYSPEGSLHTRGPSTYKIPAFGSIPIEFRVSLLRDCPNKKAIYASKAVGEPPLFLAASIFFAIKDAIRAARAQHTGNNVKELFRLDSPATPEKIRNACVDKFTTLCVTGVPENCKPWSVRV

Oc1cc(O)cc(C2c3c(/C=C/c4ccc(O)c(O)c4)cc(O)cc3OC2c2ccc(O)c(O)c2)c1 (stereo not shown) [scirpusin B]
anti-HIV activity [1]: has anti-HIV activity
superoxide anion removal activity [2]: has superoxide anion removal activity
α-amylase activity inhibitory activity [3]: has α-amylase activity inhibitory activity
xanthine oxidase inhibitory activity [4]: has xanthine oxidase inhibitory activity
